Data published in patent US8785470B2, “Heterocyclic compounds and uses thereof” (Infinity Pharmaceuticals, Inc., priority 2011, dated 2014).
Like-named read-outs stand apart in the source and are kept apart here.

Experiments:
[1] = test system: phospho-AKT in RAW 264.7 cells (PI3Kγ); assay: PI3Kγ selective assay, phospho-AKT in RAW 264.7 cells; type: cell-based; settings: Mus musculus, RAW264.7; stimulated with C5a; ranges less than 100 nM and between 100 nM and 1 μM (given as 100-1000); read-out: IC50 for phospho-AKT, RAW 264.7 cell model
Excerpt: A compound's ability in selectively inhibiting PI3Kγ can be assessed using RAW264.7 macrophages. Briefly, serum-starved PAW264.7 cells are stimulated with a known GPCR agonist C5a. (See, e.g., Camps et al., Nature Medicine (2005) 11(9): 936-943). Cells can be treated with test compounds prior to, simultaneously with, or subsequent to the stimulation by C5a. RAW 264.7 cells respond to the complement component fragment C5a through activation of the C5a receptor, and the C5a receptor activates macrophages and induces cell migration. Test compounds' ability to inhibit C5a-mediated AKT phosphorylation is indicative of selective inhibition of PI3Kγ. Thus, by monitoring the reduction of phospho-AKT in stimulated RAW 264.7 cells (using for example, phospho-AKT antibodies), a compound's potential efficacy in selectively inhibiting PI3Kγ can be assessed.

[2] = molecular target: T1, PI3Kα (Homo sapiens, UniProt P42336); assay: PI3-Kinase HTRF assay, PI3Kα; type: biochemical; settings: bins Greater than 10 μM and Greater than 1 μM to 10 μM; 10 μM ATP, PIP2 at 10 μM; read-out: IC50 P13Kα
T1 construct: purchased Millipore Corporation 14-602-K
Outline: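 Competitive time-resolved FRET readout of PIP3 formed from 10 μM PIP2 with 10 μM ATP, 1 h at room temperature, by each recombinant human isoform (α, β, γ, δ; 0.25-0.3 μg/ml). Compound (2% DMSO final) was preincubated 15 min with enzyme and substrate; IC50 fitted over 20 μM–0.1 nM, 12 points.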

[3] = test system: phospho-AKT in RAJI cells (PI3Kδ); assay: PI3Kδ selective assay, phospho-AKT in RAJI cells; type: cell-based; settings: RAJI cells stimulated with anti-human IgM; read-out: IC50 for phospho-AKT, RAJI cell model
Excerpt: A compound's ability in selectively inhibiting PI3Kδ can be assessed using RAJI cells, i.e., B lymphocyte cells derived from lymphoma patients. Briefly, serum-starved RAJI cells are stimulated with anti-human IgM, thereby causing signaling through the B-cell receptors, as described in, for example, He et al., Leukemia Research (2009) 33: 798-802. B-cell receptor signaling is important for the activation, differentiation, and survival of B cells and certain B-cell derived cancers. Reduction of phospho-AKT is indicative of compounds that may inhibit B-cell proliferation and function in certain diseases. By monitoring the reduction of phospho-AKT in stimulated RAJI cells (using for example, phospho-AKT antibodies), a compound's potential efficacy in selectively inhibiting PI3Kδ can be assessed.

[4] = test system: Balb/c splenic B cells; assay: B cell activation and proliferation assay; type: cell-based; settings: Mus musculus, read-out: B cell proliferation EC50
Outline: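 Read-out is metabolic activity by Alamar Blue reduction (5 h, 560Ex/590Em) after 72 h at 37° C, reported as IC50 or EC50. Compound (0.2% DMSO) was added 30 min before a cocktail holding 10 μg/ml LPS or 5 μg/ml F(ab′)2 anti-IgM with 2 ng/ml mouse IL4. Cells were purified Balb/c splenic B cells, 50.000 per well.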

[5] = molecular target: T2, PI3Kβ (Homo sapiens, UniProt P42338); assay: PI3-Kinase HTRF assay, PI3Kβ; type: biochemical; settings: bins Greater than 10 μM and Greater than 1 μM to 10 μM; 10 μM ATP, PIP2 at 10 μM
T2 construct: purchased Millipore Corporation 14-603-K
Excerpt: A PI3-Kinase HTRF® assay kit (cat No. 33-016) purchased from Millipore Corporation was used to screen compounds provided herein. This assay used specific, high affinity binding of the GRPI pleckstrin homology (PH) domain to PIP3, the product of a Class 1A or 1B PI3 Kinase acting on its physiological substrate PIP2. During the detection phase of the assay, a complex was generated between the GST-tagged PH domain and biotinylated short chain PIP3. The biotinylated PIP3 and the GST-tagged PH domain recruited fluorophores (Streptavidin-Allophycocyanin and Europium-labeled anti-GST respectively) to form the fluorescence resonance energy transfer (FRET) architecture, generating a stable time-resolved FRET signal. The FRET complex was disrupted in a competitive manner by non-biotinylated PIP3, a product formed in the PI3 Kinase assay.
PI3 Kinase α, β, γ and δ activity was assayed using the PI3 Kinase HTRF® assay kit (catalogue No. 33-016) purchased from Millipore Corporation. Purified recombinant PI3Kα (catalogue No. 14-602-K), PI3Kβ (catalogue No. 14-603-K), PI3Kγ (catalogue No. 14-558-K) and PI3Kδ (catalogue No. 14-604-K) were obtained from Millipore Corporation. Purified recombinant PI3K enzyme was used to catalyze the phosphorylation of phosphatidylinositol 4,5-bisphosphate (PIP2 at 10 μM) to phosphatidylinositol 3,4,5-trisphosphate (PIP3) in the presence of 10 μM ATP. The assay was carried out in 384-well format and detected using a Perkin Elmer EnVision Xcite Multilabel Reader. Emission ratios were converted into percent inhibitions and imported into GraphPad Prism software. The concentration necessary to achieve inhibition of enzyme activity by 50% (IC50) was calculated using concentrations ranging from 20 μM to 0.1 nM (12-point curve). IC50 values were determined using a nonlinear regression model available in GraphPad Prism 5. […]

[6] = column bins 1 μM to 100 nM (given as 100-1000) and Less than 100 nM

T1 sequence (P42336 whole entry): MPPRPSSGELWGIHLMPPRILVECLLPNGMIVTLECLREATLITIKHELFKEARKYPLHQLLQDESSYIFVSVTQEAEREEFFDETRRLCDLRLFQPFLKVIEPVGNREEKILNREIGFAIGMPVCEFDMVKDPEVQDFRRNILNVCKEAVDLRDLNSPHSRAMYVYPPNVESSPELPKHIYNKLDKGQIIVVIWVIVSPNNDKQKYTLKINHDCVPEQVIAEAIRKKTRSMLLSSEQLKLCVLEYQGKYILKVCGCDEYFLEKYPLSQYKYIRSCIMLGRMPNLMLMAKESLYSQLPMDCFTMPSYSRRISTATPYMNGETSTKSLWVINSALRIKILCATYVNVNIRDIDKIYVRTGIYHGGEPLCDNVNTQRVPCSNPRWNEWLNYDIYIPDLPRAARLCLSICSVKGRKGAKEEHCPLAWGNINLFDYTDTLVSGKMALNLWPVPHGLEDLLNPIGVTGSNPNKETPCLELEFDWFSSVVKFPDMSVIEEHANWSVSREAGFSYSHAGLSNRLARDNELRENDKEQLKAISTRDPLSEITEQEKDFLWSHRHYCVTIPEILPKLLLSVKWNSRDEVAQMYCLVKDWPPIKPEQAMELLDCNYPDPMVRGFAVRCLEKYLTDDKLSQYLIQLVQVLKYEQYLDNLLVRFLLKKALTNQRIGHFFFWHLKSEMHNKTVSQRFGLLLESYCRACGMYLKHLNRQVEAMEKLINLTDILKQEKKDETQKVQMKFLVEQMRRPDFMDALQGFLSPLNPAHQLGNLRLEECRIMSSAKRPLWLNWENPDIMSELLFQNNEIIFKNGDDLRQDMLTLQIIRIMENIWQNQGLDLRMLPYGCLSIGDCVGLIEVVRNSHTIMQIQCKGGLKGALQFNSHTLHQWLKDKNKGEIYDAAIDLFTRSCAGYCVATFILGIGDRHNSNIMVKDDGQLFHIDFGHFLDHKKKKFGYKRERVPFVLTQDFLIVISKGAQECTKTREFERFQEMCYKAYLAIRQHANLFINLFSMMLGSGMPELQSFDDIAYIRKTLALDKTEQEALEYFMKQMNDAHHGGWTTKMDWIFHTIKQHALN
T1 sequence (P27986 whole entry partner): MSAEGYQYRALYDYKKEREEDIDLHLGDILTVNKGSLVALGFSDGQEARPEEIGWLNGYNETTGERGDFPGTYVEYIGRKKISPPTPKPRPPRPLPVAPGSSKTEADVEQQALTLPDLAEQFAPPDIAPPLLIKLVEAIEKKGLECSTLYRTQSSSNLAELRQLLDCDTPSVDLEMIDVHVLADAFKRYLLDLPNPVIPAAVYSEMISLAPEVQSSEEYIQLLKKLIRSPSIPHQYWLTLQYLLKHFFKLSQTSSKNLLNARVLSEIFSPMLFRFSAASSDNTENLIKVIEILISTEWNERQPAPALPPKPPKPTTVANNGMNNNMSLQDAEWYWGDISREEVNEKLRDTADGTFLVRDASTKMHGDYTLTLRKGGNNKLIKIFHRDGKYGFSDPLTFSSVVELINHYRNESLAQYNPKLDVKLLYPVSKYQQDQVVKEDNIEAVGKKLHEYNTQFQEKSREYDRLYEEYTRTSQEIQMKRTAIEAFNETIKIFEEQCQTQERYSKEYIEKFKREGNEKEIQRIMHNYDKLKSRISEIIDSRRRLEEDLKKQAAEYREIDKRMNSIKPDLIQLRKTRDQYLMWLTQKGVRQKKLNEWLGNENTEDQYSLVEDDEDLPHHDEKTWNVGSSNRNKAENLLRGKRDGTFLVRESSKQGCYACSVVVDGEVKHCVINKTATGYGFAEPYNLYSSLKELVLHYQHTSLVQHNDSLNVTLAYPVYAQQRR
T2 sequence (P42338 whole entry): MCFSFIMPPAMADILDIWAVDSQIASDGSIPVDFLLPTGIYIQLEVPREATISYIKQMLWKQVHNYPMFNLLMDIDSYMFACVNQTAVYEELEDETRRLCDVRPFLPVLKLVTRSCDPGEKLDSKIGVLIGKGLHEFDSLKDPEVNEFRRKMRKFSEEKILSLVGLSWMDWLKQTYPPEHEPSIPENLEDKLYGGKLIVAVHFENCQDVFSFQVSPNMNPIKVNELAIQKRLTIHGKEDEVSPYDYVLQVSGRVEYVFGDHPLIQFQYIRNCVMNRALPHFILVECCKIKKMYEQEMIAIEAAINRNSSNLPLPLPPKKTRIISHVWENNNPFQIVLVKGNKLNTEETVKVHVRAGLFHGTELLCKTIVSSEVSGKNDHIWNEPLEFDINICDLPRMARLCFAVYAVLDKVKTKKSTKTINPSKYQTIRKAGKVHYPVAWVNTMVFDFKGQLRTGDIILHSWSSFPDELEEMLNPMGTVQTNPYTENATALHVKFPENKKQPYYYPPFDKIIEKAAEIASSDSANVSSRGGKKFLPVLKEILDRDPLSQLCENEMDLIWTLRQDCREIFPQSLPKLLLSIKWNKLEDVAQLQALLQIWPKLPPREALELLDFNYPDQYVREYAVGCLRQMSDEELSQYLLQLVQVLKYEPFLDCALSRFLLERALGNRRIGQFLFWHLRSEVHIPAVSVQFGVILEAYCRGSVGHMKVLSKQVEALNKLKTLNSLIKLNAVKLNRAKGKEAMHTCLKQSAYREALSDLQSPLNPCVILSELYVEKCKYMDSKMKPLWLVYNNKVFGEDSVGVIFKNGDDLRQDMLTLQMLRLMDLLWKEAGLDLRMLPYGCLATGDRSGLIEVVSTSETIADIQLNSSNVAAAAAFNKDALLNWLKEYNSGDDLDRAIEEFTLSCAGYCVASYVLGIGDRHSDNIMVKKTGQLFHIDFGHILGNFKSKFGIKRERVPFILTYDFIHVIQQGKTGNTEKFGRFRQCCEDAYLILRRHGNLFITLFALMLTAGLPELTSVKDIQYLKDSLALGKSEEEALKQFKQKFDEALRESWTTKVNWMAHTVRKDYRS
T2 sequence (P27986 whole entry partner): as the sequence (P27986 whole entry partner) above

Compound | IC50 [1] [nM] | IC50 [2] [nM] | IC50 [3] [nM] | EC50 [4, 6] [nM] | IC50 [5] [nM] | EC50 [4] [nM]
C[C@H](Nc1nc(N)ncc1C#N)c1cc2cccc(-c3cccc(NS(=O)(=O)N(C)C)c3)c2c(=O)n1-c1ccccc1 [Compound 127] | < 100 | 1000 to 10000 |  |  |  | 
C[C@H](Nc1ncnc(N)c1C#N)c1cc2cccc(Cl)c2c(=O)n1-c1ccon1 [Compound 335] | 100 to 1000 |  | < 100 |  |  | 
C[C@H](Nc1nc(N)ncc1C#N)c1cc2cccc(Cl)c2c(=O)n1C [Compound 276] | < 100 |  |  |  |  | 
C[C@H](Nc1nc(N)ncc1C#N)c1cc2cccc(Cl)c2c(=O)n1-c1cc(F)cc(F)c1 [Compound 273] | 100 to 1000 |  | < 100 |  |  | 
C[C@H](Nc1nc(N)ncc1-c1cncs1)c1cc2cccc(-c3ccc(=O)n(C)c3)c2c(=O)n1-c1ccccc1 [Compound 387] | 100 to 1000 |  | < 100 |  |  | 
C[C@H](Nc1nc(N)ncc1C#N)c1nc2cccc(-c3cnn(C)c3)c2c(=O)n1-c1ccccc1 [Compound 61] |  | 1000 to 10000 |  | < 100 | 1000 to 10000 | 
C[C@H](Nc1nc(N)ncc1C#N)c1cc2cccc(-c3ccc(S(N)(=O)=O)cc3)c2c(=O)n1-c1ccccc1 [Compound 45] |  | 1000 to 10000 |  | < 100 | 1000 to 10000 | 
C[C@H](Nc1nc(N)ncc1C#N)c1cc2cccc(-c3cccc(C#N)c3)c2c(=O)n1-c1ccccc1 [Compound 44] |  | 1000 to 10000 |  | < 100 | 1000 to 10000 | 
C[C@H](Nc1nc(N)ncc1C#N)c1cc2cccc(-c3ccnc(NS(C)(=O)=O)c3)c2c(=O)n1-c1ccccc1 [Compound 443] |  | 1000 to 10000 |  | < 100 | 1000 to 10000 | 
C[C@H](Nc1nc(N)ncc1C#N)c1cc2cccc(-c3c[nH]nn3)c2c(=O)n1-c1ccccc1 [Compound 196] |  | 1000 to 10000 |  | < 100 | 1000 to 10000 | 
CCn1cc(-c2cccc3cc([C@H](C)Nc4nc(N)ncc4C#N)n(-c4ccccc4)c(=O)c23)ccc1=O [Compound 230] |  | 1000 to 10000 |  | < 100 | 1000 to 10000 | 
C[C@H](Nc1nc(N)ncc1C#N)c1cc2cccc(-c3ccc(C#N)cc3)c2c(=O)n1-c1ccccc1 [Compound 43] |  | 1000 to 10000 |  | < 100 | 1000 to 10000 | 
C[C@H](Nc1nc(N)ncc1C#N)c1cc2cccc(-c3ccc(NS(C)(=O)=O)cc3)c2c(=O)n1-c1ccccc1 [Compound 167] |  | 1000 to 10000 |  | < 100 | 1000 to 10000 | 
C[C@H](Nc1nc(N)ncc1C#N)c1cc2cccc(-c3ccc(=O)n(CC4CC4)c3)c2c(=O)n1-c1ccccc1 [Compound 232] |  | 1000 to 10000 |  | < 100 | 1000 to 10000 | 
C[C@H](Nc1nc(N)ncc1C#N)c1cc2cccc(-c3cccc(S(N)(=O)=O)c3)c2c(=O)n1-c1ccccc1 [Compound 102] |  | 1000 to 10000 |  | < 100 | 1000 to 10000 | 
C[C@H](Nc1nc(N)ncc1C#N)c1cc2cccc(-c3ccnc(N)c3)c2c(=O)n1-c1ccccc1 [Compound 187] |  | 1000 to 10000 |  | < 100 | 1000 to 10000 | 
C[C@H](Nc1nc(N)ncc1C#N)c1cc2cccc(Cl)c2c(=O)n1C1CCCCC1 [Compound 300] |  | 1000 to 10000 |  | < 100 | 1000 to 10000 | 
C[C@H](Nc1nc(N)ncc1C#N)c1cc2cccc(-c3cncc(S(C)(=O)=O)c3)c2c(=O)n1-c1ccccc1 [Compound 189] |  | 1000 to 10000 |  | < 100 | 1000 to 10000 | 
Cc1cc(-c2cccc3nc([C@H](C)Nc4nc(N)ncc4C#N)n(-c4ccccc4)c(=O)c23)ccn1 [Compound 62] |  | 1000 to 10000 |  | < 100 | 1000 to 10000 | 
C[C@H](Nc1nc(N)ncc1C#N)c1cc2ccccc2c(=O)n1-c1ccccc1 [Compound 125] |  | 1000 to 10000 |  | < 100 | 1000 to 10000 | 
COc1ncc(-c2cccc3cc([C@H](C)Nc4nc(N)ncc4C#N)n(C4CC4)c(=O)c23)cn1 [Compound 105] |  | 1000 to 10000 |  | < 100 | 1000 to 10000 | 
C[C@H](Nc1nc(N)ncc1C#N)c1cc2cccc(-c3ccc4c(c3)OCO4)c2c(=O)n1-c1ccccc1 [Compound 94] |  | 1000 to 10000 |  | < 100 | 1000 to 10000 | 
C[C@H](Nc1nc(N)ncc1C#N)c1cc2cccc(-c3ccc(N(C)C)cc3)c2c(=O)n1-c1ccccc1 [Compound 42] |  | 1000 to 10000 |  | < 100 | 1000 to 10000 | 
C[C@H](Nc1nc(N)ncc1C#N)c1cc2cccc(-c3cnoc3)c2c(=O)n1-c1ccccc1 [Compound 74] |  | 1000 to 10000 |  | < 100 | 1000 to 10000 | 
C[C@H](Nc1nc(N)ncc1C#N)c1cc2cccc(-c3cncc(O)c3)c2c(=O)n1-c1ccccc1 [Compound 13, 2-amino-4-((S)-1-(8-(5-hydroxypyridin-3-yl)-1-oxo-2-phenyl-1,2-dihydroisoquinolin-3-yl)ethylamino)pyrimidine-5-carbonitrile] |  | 1000 to 10000 |  | < 100 | 1000 to 10000 | 
C[C@H](Nc1nc(N)ncc1C#N)c1cc2cccc(-c3cccc(NS(C)(=O)=O)c3)c2c(=O)n1-c1ccccc1 [Compound 126] |  | 1000 to 10000 |  | < 100 | 1000 to 10000 | 
COc1cc(-c2cccc3nc([C@H](C)Nc4nc(N)ncc4C#N)n(-c4ccccc4)c(=O)c23)ccn1 [Compound 116] |  | 1000 to 10000 |  |  | 1000 to 10000 | < 100
